Measurements published in patent US4599362A, “2-aryl-ethyl ether derivatives and insecticidal and acaricidal agents containing said derivatives” (priority 1980, dated 1986).
Where two headings read alike, the source gives them in different places.

Key:
[1] = tested on: two-spotted spider mite; assay: Test 6: Effect on Two-Spotted Spider mite adults; type: in vivo; details: Tetranychus urticae; 500 ppm; adults; 24 hours; read-out: Mortality (%)
Protocol: (§1) To a mixture of 20 parts of the compound of the present invention and 20 parts of Sorpol SM-200 (registered trademark for the product supplied by Toho Chemical Industrial Co., Ltd.) was added 60 parts of xylol, and the mixture was sufficiently blended. The obtained emulsifiable concentrate was diluted at a predetermined concentration with distilled water, and the obtained dilution was used.
A kidney bean leaf disc perforated with a cork borer (15 mm in diameter) was placed on water-impreganated absorbent cotton (2 cm×2 cm), and 10 adults of two-spotted spider mite were set free. A chemical dilution having a concentration of 500 ppm was applied with an applicator in an amount of 3 ml.
The leaf disc-placed absorbent cotton was placed in a thermostat chamber maintained at 25° C. After 24 hours, the number of killed adults was counted and the mortality was calculated. The test was made on three leaf discs and the average value was calculated.

[2] = tested on: resistant green rice leafhopper (collected at Nakagawara); assay: Test 3: Effect on Resistant Green Rice Leafhopper; type: in vivo, Nephotettix cincticeps Uhler; details: Nephotettix cincticeps, 24 h, read-out: Mortality (%) Green Rice Leafhopper Collected at Nakagawara
Protocol: as §1
(§2) Seedlings (having 2 to 3 leaves) of paddy rice were hydroponically cultured in a pot having a diameter of 5 cm. A chemical dilution having a concentration of 100 or 20 ppm, prepared in the same manner as described in Test 1, was applied with a sprayer at a rate of 3 ml per pot. The treated seedlings were air-dried and covered with a metal net cylinder, and female adults of resistant green rice leafhopper (collected at Nakagawara) and sensitive green rice leafhopper (collected at Chigasaki) were set, respectively, free in the pot at a density of 10 adults per pot. After of 24 hours, the numbers of killed and living adults were counted and the mortality was calculated. The test was made on three pots and the average value was calculated.

[3] = tested on: sensitive green rice leafhopper (collected at Chigasaki); assay: Test 3: Effect on Sensitive Green Rice Leafhopper; type: in vivo; details: Nephotettix cincticeps, female adults, 24 hours
Protocol: as §1, §2

[4] = Test 8: Fish Toxicity; type: in vivo; details: carp, water, carps, concentration at which 1/2 of the test fishes were killed, read-out: Fish Toxicity, TLm48
Protocol: A water tank having a width of 60 cm, a length of 30 cm and a height of 40 cm was filled with water, and 10 yearling carps having a body length of about 5 cm were set free in the tank and adapted to the environment in the tank. A test compound was applied so that the concentration in water was 10, 1, or 0.1 ppm. After 48 hours, the numbers of killed and living carps were counted and the influences on the fishes were examined.

[5] = Test 9: Toxicity Test (acute oral, mice); details: mouse, in vivo, po
Protocol: In the fish toxicity test, the test compound was dissolved in acetone to form a 1% solution, and a predetermined amount of the solution was used. In the mouse toxicity test, the test compound of the present invention was dissolved or suspended in corn oil, and a predetermined amount of the solution or suspension was used.
A predetermined amount of a solution or suspension of a test compound in corn oil was orally administered to male mice having a body weight of 19 to 23 g (0.2 ml per 10 g of the body weight). After 7 days, the number of killed mice was counted and the influences on the mice were examined.

[6] = tested on: third-instar larvae of diamond back moth; assay: Test 4: Effect on Diamond Back Moth; type: in vivo; details: Plutella xylostella, 24 hours
Protocol: as §1
Cabbage leaves were spread in a plastic cup, and 10 third-instar larvae of diamond back moth were set free in the cup.
A chemical dilution having a concentration of 100 or 20 ppm, prepared in the same manner as described in Test 1, was applied from an applicator at a rate of 3 ml per cup.
After scattering of the chemical dilution, the cup was covered, and after 24 hours, the numbers of killed and living larvae were counted and the mortality was calculated. The test was made on three cups and the average value was calculated.

[7] = tested on: German cockroach; assay: Test 7: Effect on German Cockroach; type: in vivo; details: Blattella germanica, male adults, 24 hours, agonized and killed; for mortality at 10 mg/m2: 10 mg/m^2; for mortality at 50 mg/m2: 50 mg/m^2
Protocol: The bottom face of a high Petri dish having a diameter of 9 cm and a height of 9 cm was treated with 50 or 10 mg/m^2 of a test compound and the dish was air-dried. In order to prevent the adults from escaping from the dish, the inner wall of the dish was treated with butter. Then, 10 male adults of German cockroach were set free in each dish, and the dish was placed in a thermostat chamber maintained at 25° C. After 24 hours, the number of agonized and killed adults was counted. The test was made on two dishes and the average value was calculated.

[8] = tested on: green peach aphids; assay: Test 5: Effect on green peach Aphid; type: in vivo; details: Myzus persicae, 24 hours, mortality class, read-out: Insecticidal Activity
Protocol: as §1
Seedlings (having 3 to 4 leaves) of an eggplant grown on a pot were inoculated with green peach aphids and the insects were allowed to grow. The number of the insects was counted. A chemical dilution having a concentration of 100 ppm, prepared in the same manner as described in Test 1, was applied with a spray gun at a rate of 10 ml per pot. Then, the pot was placed in a glass green house. After 24 hours, the number of living insects was counted and the mortality was calculated.
The test was made on three pots, and the average value was calculated. In Table 6, mark "A" indicates a mortality higher than 95%, mark "B" indicates a mortality of 80 to 95%, mark "C" indicates a mortality of 50 to 80%, and mark "D" indicates a mortality lower than 50%.

[9] = tested on: Second-instar and fifth-instar larvae of tobacco cutworm; assay: Test 2: Tobacco Cutworm Larva Dipping Test; type: in vivo
Protocol: as §1
A dilution having a chemical concentration of 100 or 20 ppm was prepared in the same manner as described in Test 1.
Second-instar and fifth-instar larvae of tobacco cutworm were dipped in the dilution for 5 seconds, and the excessive dilution was removed by a filter paper. Then, the larvae were set free in a plastic cup and an artificial diet was supplied thereto. The cup was allowed to stand still in a thermostat chamber maintained at 25° C. After 24 hours, the numbers of the killed and living larvae were counted and the mortality was calculated. The test was made on three cups and the result was expressed by an average value.

[10] = topical, 24 h, read-out: Mortality (%) Fifth-Instar Larvae

Structure (SMILES)	mortality at 500 ppm [1] [%]	LC50 at 48 h [4] [µg/mL]	LD50 at 168 h [5] [mg/kg]	mortality at 20 ppm [6] [%]	mortality at 100 ppm [6] [%]	mortality at 10 mg/m2 [7] [%]	mortality at 50 mg/m2 [7] [%]	further results
CC(C)(COCc1ccc(F)c(Oc2ccccc2)c1)c1ccc(OC2CCCCC2)cc1 [Compound 46, 3-Phenoxy-4-fluorobenzyl 2-(4-cyclohexyloxyphenyl)-2-methylpropyl ether]	100	> 1						mortality at 20 ppm [2]: 100%; mortality at 100 ppm [2]: 100%; mortality at 20 ppm [3]: 100%; mortality at 100 ppm [3]: 100%
CC(C)(COCc1cc(Oc2ccccc2)ccc1Cl)c1ccc(Cl)cc1 [Compound 7, 3-phenoxy-6-chlorobenzyl 2-(4-chlorophenyl)-2-methylpropyl ether]		> 10	> 500					
Cc1cccc(C(C)(C)COCc2ccc(F)c(Oc3ccccc3)c2)c1 [Compound 19, 3-phenoxy-4-fluorobenzyl 2-(3-methylphenyl)-2-methylpropylether]		> 1		100	100	90	100	
CC(C)Sc1ccc(C(C)(C)COCc2ccc(F)c(Oc3ccccc3)c2)cc1 [Compound 54, 3-Phenoxy-4-fluorobenzyl 2-(4-isopropylthiophenyl)-2-methylpropyl ether]	100		> 500	100	100	100	100	mortality at 100 ppm [8]: > 95%
CC(C)(COCc1ccc(F)c(Oc2ccccc2)c1)c1ccc(Cl)c(Cl)c1 [Compound 14, 3-Phenoxy-4-fluorobenzyl 2-(3,4-dichlorophenyl)-2-methylpropyl ether]	100	> 1		100	100			
COc1ccc(C(C)(C)COCc2ccc(F)c(Oc3ccccc3)c2)cc1 [Compound 16, 3-Phenoxy-4-fluorobenzyl 2-(4-methoxyphenyl)-2-methylpropyl ether]		> 0.5		80	100	90	100	
CCOc1ccc(C(C)(C)CSCc2ccc(F)c(Oc3ccccc3)c2)cc1Cl [Compound 51]	90		> 500	80	100	100	100	mortality at 100 ppm [8]: > 95%
CC(C)(COCc1cc(Oc2ccccc2)ccc1Br)c1ccc(Cl)cc1 [Compound 26, 3-Phenoxy-6-bromobenzyl 2-(4-chlorophenyl)-2-methylpropyl ether]		> 10	> 500					
CC(C)(COCc1ccc(F)c(Oc2cccc(Cl)c2)c1)c1ccc(Cl)cc1 [Compound 9, 3-(3-Chlorophenoxy)-4-fluorobenzyl 2-(4-chlorophenyl)-2-methylpropyl ether]		> 1	> 500					
Cc1ccc(C(C)(C)COCc2cc(Oc3ccccc3)ccc2Cl)cc1 [Compound 31, 3-Phenoxy-6-chlorobenzyl 2-(4-methylphenyl)-2-methylpropyl ether]		> 10	> 500					
CCOc1ccc(C(C)(C)COCc2ccc(F)c(Oc3ccccc3)c2)cc1 [Compound 36, 3-Phenoxy-4-fluorobenzyl 2-(4-ethoxyphenyl)-2-methylpropyl ether]			> 500	100	100	100	100	mortality at 20 ppm ([9]; 20 ppm, second-instar larvae, 24 hours, read-out: Mortality (%) Second-Instar Larvae): 100%; mortality at 100 ppm ([9]; 100 ppm, second-instar larvae, 24 hours, read-out: Mortality (%) Second-Instar Larvae): 100%; mortality at 20 ppm [9, 10]: 100%; mortality at 100 ppm [9, 10]: 100%; mortality at 100 ppm [8]: > 95%; mortality at 20 ppm [2]: 100%; mortality at 100 ppm [2]: 100%; mortality at 20 ppm [3]: 100%; mortality at 100 ppm [3]: 100%
CC(C)(COCc1ccc(F)c(Oc2ccc(F)cc2)c1)c1ccc(Cl)c(Cl)c1 [Compound 24, 3-(4-Fluorophenoxy)-4-fluorobenzyl 2-(3,4-dichlorophenyl)-2-methylpropyl ether]		> 1		90	100			
